Consider 9 molecules from patent publication US20260248972A1, “DUAL RECEPTOR TARGETING RADIOLIGANDS AND USES THEREOF RELATED APPLICATIONS” (priority 2022, published 2026).

Data set [1] addresses T1, CCK2R (Homo sapiens, UniProt P32239).
T1 construct: expressed in transfected cells; host or cells: HEK 293T cells
T1 sequence (P32239 1-447): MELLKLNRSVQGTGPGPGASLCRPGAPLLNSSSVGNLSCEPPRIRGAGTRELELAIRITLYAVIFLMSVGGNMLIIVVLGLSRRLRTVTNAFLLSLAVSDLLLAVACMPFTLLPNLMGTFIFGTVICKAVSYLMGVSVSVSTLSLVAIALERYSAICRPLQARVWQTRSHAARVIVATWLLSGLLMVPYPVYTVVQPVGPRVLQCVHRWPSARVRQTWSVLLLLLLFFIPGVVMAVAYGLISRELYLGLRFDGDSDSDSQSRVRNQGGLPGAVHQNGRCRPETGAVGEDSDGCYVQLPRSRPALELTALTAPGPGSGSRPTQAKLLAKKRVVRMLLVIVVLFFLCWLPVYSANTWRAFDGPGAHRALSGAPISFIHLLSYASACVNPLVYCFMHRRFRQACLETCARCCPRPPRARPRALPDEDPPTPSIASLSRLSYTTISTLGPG
The data set is described as follows: Competitive binding (FACS) on CCK2R-transfected HEK 293T cells with Cy5-labeled Z360. To be noted: HEK 293T transfected, Cy5-labeled Z360 competitive ligand (Table 3). Here is the method:
Binding Affinity Tested by Using Cy5-Labled Competitive Ligands.
HEK 293T cells were transfected with SSTR2 or CCK2R-expressing plasmid by Lipofectamine 2000 reagent. 24 hours after transfection, cells were harvested and suspended with assay buffer (1% OVA in DMEM). […] The testing compound was further supplemented into the wells at different concentrations. After incubation for 1 hour at dark, cells were washed and suspended in FACS buffer (1% OVA in DPBS). The fluorescent signal was detected by FACS machine and the binding affinity of the testing compound was evaluated by calculation of IC50 for competitive binding of reference compound.

For data set [2], the target named is T1, CCK2R. Put plainly: Competitive binding (FACS) on CCK2R-transfected HEK 293T cells with Cy5-labeled F11N derivative. The settings on record: HEK 293T transfected, Cy5-labeled F11N derivative competitive ligand (Table 4); read-out: CCK2R IC50.
The nature of data set [3]: in vivo. To be noted: BALB/c nude, mouse, in vivo, iv, total radioactivity. An outline of the steps:
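Compounds labelled with ^177Lu in 0.5 M NaOAc pH 4.5 at 95° C for 15 min, then used directly or diluted in PBS with 3 mg/mL ascorbate. BALB/c nude mice bore subcutaneous AR42J flank xenografts (0.05-0.50 g). Organs excised at 4, 24 and 72 h post-injection and γ-counted for % ID and % ID/g.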

One may read the IC50 as the point on the concentration scale where inhibition reaches its midpoint. In data set [1], `CC(O)[C@H](NC(=O)[C@@H]1CSSC[C@H](NC(=O)[C@@H](Cc2ccccc2)NC(=O)COCCOCCNC(=O)[C@H](CCCCNC(=O)CCC(NC(=O)CNC(=O)c2cccc(NC(=O)N[C@@H]3CN(C4CCCCC4)c4ccccc4N(CC(=O)C(C)(C)C)C3=O)c2)C(=O)O)NC(=O)COCCOCCNC(=O)COCCOCCNC(=O)CC[C@H](NC(=O)CN2CCN(CC(=O)O)CCN(CC(=O)O)CCN(CC(=O)O)CC2)C(=O)O)C(=O)N[C@@H](Cc2ccc(O)cc2)C(=O)N[C@H](Cc2c[nH]c3ccccc23)C(=O)N[C@@H](CCCCN)C(=O)N[C@@H]([C@@H](C)O)C(=O)N1)C(=O)O` (stereo in doubt) [Compound I-21, DOTA-gE-OEG-OEG-K(-gE-G-Z360)-OEG-f[CYwKTC]T-OH] came in with an IC50 of 7.13 nM. Still for that read-out and setting: in the case of `C[C@@H](O)[C@H](NC(=O)[C@@H]1CSSC[C@H](NC(=O)[C@@H](Cc2ccccc2)NC(=O)[C@H](CCCCNC(=O)CC[C@H](NC(=O)CNC(=O)c2cccc(NC(=O)N[C@@H]3CN(C4CCCCC4)c4ccccc4N(CC(=O)C(C)(C)C)C3=O)c2)C(=O)O)NC(=O)CN2CCN(CC(=O)O)CCN(CC(=O)O)CCN(CC(=O)O)CC2)C(=O)N[C@@H](Cc2ccc(O)cc2)C(=O)N[C@H](Cc2c[nH]c3ccccc23)C(=O)N[C@@H](CCCCN)C(=O)N[C@@H]([C@@H](C)O)C(=O)N1)C(=O)O` [Compound I-26, DOTA-K(-gE-G-Z360)-f[CYwKTC]T-OH] it was 2.67 nM. For `C[C@@H](O)[C@H](NC(=O)[C@@H]1CSSC[C@H](NC(=O)[C@@H](Cc2ccccc2)NC(=O)[C@H](CCCCNC(=O)COCCOCCNC(=O)[C@H](CCC(=O)O)NC(=O)c2cccc(NC(=O)N[C@@H]3CN(C4CCCCC4)c4ccccc4N(CC(=O)C(C)(C)C)C3=O)c2)NC(=O)CN2CCN(CC(=O)O)CCN(CC(=O)O)CCN(CC(=O)O)CC2)C(=O)N[C@@H](Cc2ccc(O)cc2)C(=O)N[C@H](Cc2c[nH]c3ccccc23)C(=O)N[C@@H](CCCCN)C(=O)N[C@@H]([C@@H](C)O)C(=O)N1)C(=O)O` [Compound I-28, DOTA-K(-OEG-E-Z360)-f[CYwKTC]T-OH], in data set [1], the IC50 worked out at 4.84 nM. In turn, `C[C@@H](O)[C@H](NC(=O)[C@@H]1CSSC[C@H](NC(=O)[C@@H](Cc2ccccc2)NC(=O)[C@H](CCCCNC(=O)[C@H](CCC(=O)O)NC(=O)c2cccc(NC(=O)N[C@@H]3CN(C4CCCCC4)c4ccccc4N(CC(=O)C(C)(C)C)C3=O)c2)NC(=O)CN2CCN(CC(=O)O)CCN(CC(=O)O)CCN(CC(=O)O)CC2)C(=O)N[C@@H](Cc2ccc(O)cc2)C(=O)N[C@H](Cc2c[nH]c3ccccc23)C(=O)N[C@@H](CCCCN)C(=O)N[C@@H]([C@@H](C)O)C(=O)N1)C(=O)O` [Compound I-25, DOTA-K(-E-Z360)-f[CYwKTC]T-OH] registered an IC50 in data set [1] of 1.36 nM.

Take `C[C@@H](O)[C@H](NC(=O)[C@@H]1CSSC[C@H](NC(=O)[C@@H](Cc2ccccc2)NC(=O)[C@H](CCCCNC(=O)COCCOCCNC(=O)COCCOCCNC(=O)[C@H](CCC(=O)O)NC(=O)c2cccc(NC(=O)N[C@@H]3CN(C4CCCCC4)c4ccccc4N(CC(=O)C(C)(C)C)C3=O)c2)NC(=O)CN2CCN(CC(=O)O)CCN(CC(=O)O)CCN(CC(=O)O)CC2)C(=O)N[C@@H](Cc2ccc(O)cc2)C(=O)N[C@H](Cc2c[nH]c3ccccc23)C(=O)N[C@@H](CCCCN)C(=O)N[C@@H]([C@@H](C)O)C(=O)N1)C(=O)O` [Compound I-29, DOTA-K(-OEG-OEG-E-Z360)-f[CYwKTC]T-OH]: the IC50 in data set [1] is 0.46 nM. As to `C[C@@H](O)[C@H](NC(=O)[C@@H]1CSSC[C@H](NC(=O)[C@@H](Cc2ccccc2)NC(=O)CCCCCNC(=O)CCCCCNC(=O)[C@H](CCCCNC(=O)[C@H](CCC(=O)O)NC(=O)c2cccc(NC(=O)N[C@@H]3CN(C4CCCCC4)c4ccccc4N(CC(=O)C(C)(C)C)C3=O)c2)NC(=O)CCC(C(=O)O)N2CCN(CC(=O)O)CCN(CC(=O)O)CCN(CC(=O)O)CC2)C(=O)N[C@@H](Cc2ccc(O)cc2)C(=O)N[C@H](Cc2c[nH]c3ccccc23)C(=O)N[C@@H](CCCCN)C(=O)N[C@@H]([C@@H](C)O)C(=O)N1)C(=O)O` (stereo partly drawn) [Compound I-72, DOTAGA- K(-Glu- Z360)- Ahx- Ahx- f[CYwKTC]T- OH], the IC50 in data set [2] amounted to 5.53 nM. Still for that read-out and setting: with `C[C@@H](O)[C@H](NC(=O)[C@@H]1CSSC[C@H](NC(=O)[C@@H](Cc2ccccc2)NC(=O)COCCOCCNC(=O)COCCOCCNC(=O)CC[C@H](NC(=O)[C@H](CCCCNC(=O)c2cccc(NC(=O)CC3CN(C4CCCCC4)c4ccccc4N(CC(=O)C(C)(C)C)C3=O)c2)NC(=O)CN2CCN(CC(=O)O)CCN(CC(=O)O)CCN(CC(=O)O)CC2)C(=O)O)C(=O)N[C@@H](Cc2ccc(O)cc2)C(=O)N[C@H](Cc2c[nH]c3ccccc23)C(=O)N[C@@H](CCCCN)C(=O)N[C@@H]([C@@H](C)O)C(=O)N1)C(=O)O` (stereo partly drawn) [Compound I-74, DOTA-K(Z360)-gGlu-OEG-OEG-f]CYwKTC]T-OH] the figure was 56.7 nM. By tissue uptake is commonly meant the share of the injected amount in each gram of the tissue. In the case of `C[C@@H](O)[C@H](NC(=O)[C@@H]1CSSC[C@H](NC(=O)[C@@H](Cc2ccccc2)NC(=O)COCCOCCNC(=O)[C@H](CCCCNC(=O)CC[C@H](NC(=O)CNC(=O)c2cccc(NC(=O)N[C@@H]3CN(C4CCCCC4)c4ccccc4N(CC(=O)C(C)(C)C)C3=O)c2)C(=O)O)NC(=O)CN2CCN(CC(=O)O)CCN(CC(=O)O)CCN(CC(=O)O)CC2)C(=O)N[C@@H](Cc2ccc(O)cc2)C(=O)N[C@H](Cc2c[nH]c3ccccc23)C(=O)N[C@@H](CCCCN)C(=O)N[C@@H]([C@@H](C)O)C(=O)N1)C(=O)O` [Compound I-1, DOTA-K(-gE-G-Z360)-OEG-f[CYwKTC]T-OH], the tissue uptake at 24 h in data set [3] (uptake Kidney) is 14 %ID/g; in data set [3] (uptake Liver), 2.86 %ID/g; in data set [3] (uptake Pancreas), 1.6 %ID/g; in data set [3] (uptake Spleen) it was 1.6 %ID/g; in data set [3] (uptake Stomach) it was 2.53 %ID/g; in data set [3] (uptake Tumor), 17.1 %ID/g. The molecule further returned an IC50 in data set [1] of 7.32 nM. `C[C@@H](O)[C@H](NC(=O)[C@@H]1CSSC[C@H](NC(=O)[C@@H](Cc2ccccc2)NC(=O)COCCOCCNC(=O)[C@H](CCCCNC(=O)COCCOCCNC(=O)[C@H](CCC(=O)O)NC(=O)c2cccc(NC(=O)N[C@@H]3CN(C4CCCCC4)c4ccccc4N(CC(=O)C(C)(C)C)C3=O)c2)NC(=O)CN2CCN(CC(=O)O)CCN(CC(=O)O)CCN(CC(=O)O)CC2)C(=O)N[C@@H](Cc2ccc(O)cc2)C(=O)N[C@H](Cc2c[nH]c3ccccc23)C(=O)N[C@@H](CCCCN)C(=O)N[C@@H]([C@@H](C)O)C(=O)N1)C(=O)O` [Compound I-30, DOTA-K(-OEG-E-Z360)-OEG-f[CYwKTC]T-OH] displayed an IC50 in data set [1] of 1.28 nM.
